Measured values: patent US4243678A, “Acylhydrocarbylaminoalkanoic acids, compositions and uses” (Byk Gulden Lomberg Chemische Fabrik GmbH, priority 1977, dated 1981)
Read-outs that look alike come from different tables or passages of the source.

What was measured:
[1] = Influence on pancreatic secretion of the narcotized rat; assay type: in vivo, rat (male Sprague-Dawley); conditions: in vivo, LD50 mouse i.p. / ED50 rat i.d.
Description: (§1) Male Sprague-Dawley rats (body weight from 250 to 300 g) are narcotized with 1.2 g/kg urethane i.m. Then the abdominal cavity is opened medially, the bile duct is ligatured shortly above the place where it leads into the duodenum and also near to the hepatic duct, and both sections are catheterized towards the liver.
(§2) As in the rat all the pancreatic ducts lead out into the central section of the bile duct; it is possible in this way to discharge the pancreatic secretion separately from the distal (ligatured) section and the bile separately from the proximal section of the bile duct.
(§3) The quantities of pancreatic juice and bile juice obtained are measured at intervals of 30 minutes over a period from 2 hours before to 3 hours after the intraduodenal (V. jugularis externa) administration of the compounds to be tested (quantity of liquid administered 5 ml/kg).
(§4) The body temperature of the animals is maintained at 36° to 38° C. by means of electric blankets and radiation; the temperature is monitored rectally.
(§5) The liquid volumes of the 30-minute fractions after the administration of the substance are related in each case to the quantity of bile or pancreatic juice secreted prior to the application of the substance (=100%, mean of the last two measurements). The maximum percentage increase in the pancreatic or bile secretion is represented in dependence upon dose, and from this the ED50 is determined by interpolation.

pancreatic secretion = experiment: as above; assay type: in vivo, rat (male Sprague-Dawley); conditions: 0.5 h
Description: as §1, §2, §3, §4, §5

[2] = Influence on bile secretion (choleresis) of the narcotized rat; assay type: in vivo, rat (male Sprague-Dawley); conditions: in vivo, LD50 mouse i.p. / ED50 rat i.d.
Description: as §1, §2, §3, §4, §5

bile secretion = experiment: as above; assay type: in vivo, rat (male Sprague-Dawley); conditions: 0.5 h, liquid volume
Description: as §1, §2, §3, §4, §5

[3] = Antihepatotoxic effect: duration of hexobarbital sleep of the rat after liver damage by CCl4; conditions: rat, in vivo
Procedure: (§6) The compounds to be tested are administered 1 hour prior to the administration of CCl4 orally in a liquid volume of 10 ml/kg.
(§7) The antihepatotoxic effect of the compounds to be tested (sodium salts in aqueous solution) is determined by the reduction of the prolongation of sleeping period caused by the CCl4 liver cell damage in the groups treated, as compared with the prolongation of the sleeping period of the CCl4 control group (=100%). […]

liver damage by CCl4 = experiment: as above; conditions: Rattus norvegicus, po; for ED25: read-out: ED25 antihepatotoxic effect (shortens hexobarbital narcosis by 25%)
Procedure: as §6, §7

[4] = Determination of toxicity (lethal action on the mouse after intraperitoneal application); assay type: in vivo; conditions: in vivo, ip
Procedure: The toxicity investigations are carried out on female NMRI mice (body weight 22 to 26 g). The animals (5 animals per dose) are given food and water ad lib. Different doses of the substances are administered intraperitoneally. The duration of observation is 14 days. The LD50, i.e. the dose at which 50% of the animals die, is determined graphically from the dose/effect curve.

[5] = Antiulcerogenic (stomach-protective) action, pylorus ligature and acetylsalicylic acid; assay type: in vivo, rat (female); conditions: in vivo; LD50 mouse i.p. / ED50 rat i.d.; Table IV; read-out: TQ (LD50/ED50), antiulcerogenic action
Procedure: (§8) The ulcer provocation is carried out on rats which have been made to fast for 24 hours (female, 180 to 200 g) by ligature of the pylorus (under ether narcosis) and the oral application of 100 mg/10 ml/kg acetylsalicylic acid. The administration of the substances was carried out intraduodenally (2.5 ml/kg) immediately after the ligature of the pylorus. The closure of the wound was carried out by means of Michel clamps. 4 hours after this, the animals were autopsied (while inebriated with ether) by dislocation of the atlas, and the stomach was resected. The stomach, opened longitudinally, is fixed on a cork board and, using a stereomicroscope with an enlargement of 10×, the number and size (=diameter) of any ulcers present were determined. The product of the degree of severity (according to the following scale of points) and the number of ulcers was used as the individual ulcer index.
(§9) As a measure of antiulcerogenic effect the reduction in the mean ulcer index of each treated group, as compared with that of the control group (=100%), was used.

stomach ulcer = experiment: as above; assay type: in vivo, rat (female); conditions: 4 h; rat, intraduodenally; Table IV; read-out: ED50 antiulcerogenic action (dose which reduces the mean ulcer index by 50%)
Procedure: as §8, §9

[6] = Table I, read-out: TQ (LD50/ED50), pancreatic secretion
[7] = Rattus norvegicus, read-out: ED50 pancreatic secretion (dose which brings about an increase in the pancreatic secretion by a maximum of 50%)
[8] = Table II, read-out: TQ (LD50/ED50), bile secretion
[9] = narcotized rat, i.d., 30 min fraction, Table II, read-out: ED50 bile secretion (dose which brings about an increase in the bile secretion by a maximum of 50%)
[10] = TQ (LD50/ED50), antihepatotoxic effect, LD50 mouse i.p. / ED50 rat p.o., Table III
[11] = read-out: ED50 antihepatotoxic effect (dose which shortens the hexobarbital narcosis by 50%)
[12] = Table VII, read-out: TQ [LD50/ED50], pancreatic secretion
[13] = narcotized rat, i.d., liquid volume, 30 min fraction, Table VII, read-out: ED50 pancreatic secretion (dose which brings about an increase in pancreatic secretion of a maximum of 50%)
[14] = Table VI, read-out: TQ (LD50/ED50), bile secretion
[15] = narcotized rat i.d., 30 min fraction, Table VI, read-out: ED50 bile secretion (dose which brings about an increase in the bile secretion by a maximum of 50%)
[16] = TQ LD50/ED25, antihepatotoxic effect, LD50 mouse i.p. / ED25 rat p.o., Table V
[17] = TQ LD50/ED50, antihepatotoxic effect, LD50 mouse i.p. / ED50 rat p.o., Table V
[18] = read-out: ED50 antihepatotoxic effect (shortens hexobarbital narcosis by 50%)

Compound	selectivity ratio [1, 6]	ED50 (pancreatic secretion; [7]) [mg/kg]	selectivity ratio [2, 8]	ED50 (bile secretion; [9]) [mg/kg]	selectivity ratio [3, 10]	ED50 (liver damage by CCl4; [11]) [mg/kg]	LD50 at 336 h ([4]; mouse, Table I) [mg/kg]	also measured
CC(c1ccccc1)N(CCCC(=O)O)C(=O)c1ccc(Cl)cc1 (racemic) [Serial No. 10, N-(p-chloro)benzoyl-4-(1-phenylethylamino)butyric acid]	~60	~20	~80	~15	~120	~10	1200	–
CC(C)(C)N(CCCC(=O)O)C(=O)c1ccc(Cl)cc1 [Serial No. 2, N-(p-chloro)benzoyl-4-(tert.-butylamino)butyric acid]	–	–	57	15	–	–	–	LD50 at 336 h ([4]; mouse, Table II): 850 mg/kg
C#CC(CC)(CC)N(CCCC(=O)O)C(=O)c1ccc(Cl)cc1 [Serial No. 4, N-(p-chloro)benzoyl-4-[(3-ethyl-1-pentyn-3-yl)amino]butyric acid]	–	–	~40	~5	–	–	–	LD50 at 336 h ([4]; mouse, Table II): 200 mg/kg
C#CC1(N(CCCC(=O)O)C(=O)c2ccc(Cl)cc2)CCCCC1 [Serial No. 5, N-(p-chloro)benzoyl-4-[(1-ethynylcyclohexyl-1)-amino]butyric acid]	95	2	32	6	–	–	190	–
COc1ccc(CCN(CCCC(=O)O)C(=O)c2ccc(Cl)cc2)cc1OC [Serial No. 9, N-(p-chloro)benzoyl-4-homoveratrylaminobutyric acid]	156	5	43	18	7.8	100	780	–
CCC(C)(C)N(CCCC(=O)O)C(=O)c1ccc(Cl)cc1Cl [Serial No. 11, N-(2,4-dichloro)benzoyl-4-[(1,1-dimethylpropyl)amino]butyric acid]	–	–	32	6	–	–	–	LD50 at 336 h ([4]; mouse, Table II): 190 mg/kg
CC(=O)N(CCCC(=O)O)C(c1ccccc1)c1ccccc1 [Serial No. 14, N-acetyl-4-benzhydrylaminobutyric acid]	~220	~5	220	5	110	10	1100	–
CC(C)(C)CC(C)(C)N(CCCC(=O)O)C(=O)c1ccc(F)cc1 [Serial No. 16, N-(p-fluoro)benzoyl-4-(1,1,3,3-tetramethylbutyl)aminobutyric acid]	~40	~10	57	7	–	–	400	–
O=C(O)CCCN(C(=O)c1ccc(Cl)cc1)C(Cc1ccccc1)c1ccccc1 (stereo not shown) [Serial No. 17, N-(p-chloro)benzoyl-4-[(1,2-diphenylethyl)amino]butyric acid]	~160	~1	32	5	16	10	160	–
CC(=O)N(CCCC(=O)O)c1ccccc1-c1ccccc1 [Serial No. 22, 4-[N-(biphenyl-2-yl)acetamido]butyric acid]	–	–	–	–	–	–	–	selectivity ratio [1, 12]: ~375; ED50 (pancreatic secretion; [13]): ~2 mg/kg; selectivity ratio [2, 14]: 93.8; ED50 (bile secretion; [15]): 8 mg/kg; selectivity ratio [3, 16]: > 250; selectivity ratio [3, 17]: 50; ED25 (liver damage by CCl4): < 3 mg/kg; ED50 (liver damage by CCl4; [18]): 15 mg/kg; LD50 at 336 h ([4]; mouse, Table IV): 750 mg/kg; selectivity ratio [5]: 13.6; ED50 (stomach ulcer): 55 mg/kg
CC=CC(=O)N(CCCC(=O)O)c1ccccc1-c1ccccc1 [Serial No. 27, 4-[N-(biphenyl-2-yl)crotonoylamido]butyric acid]	–	–	–	–	–	–	–	selectivity ratio [2, 14]: 30; ED50 (bile secretion; [15]): 10 mg/kg; selectivity ratio [3, 16]: 188; selectivity ratio [3, 17]: 107; ED25 (liver damage by CCl4): 1.6 mg/kg; ED50 (liver damage by CCl4; [18]): 2.8 mg/kg; LD50 at 336 h ([4]; mouse, Table IV): 300 mg/kg; selectivity ratio [5]: ~5.5; ED50 (stomach ulcer): ~55 mg/kg
COc1ccc(Cl)cc1C(=O)N(CCCC(=O)O)c1ccc(OC)c(-c2ccccc2)c1 [Serial No. 36, 4-[2-methoxy-5-chloro-N-(6-methoxybiphenyl-3-yl)benzamido]butyric acid]	–	–	–	–	–	–	–	selectivity ratio [1, 12]: 38; ED50 (pancreatic secretion; [13]): 5 mg/kg; selectivity ratio [2, 14]: 190; ED50 (bile secretion; [15]): 1 mg/kg; LD50 at 336 h ([4]; mouse i.p., Table VI): 190 mg/kg
COc1cc(C(=O)N(CCCC(=O)O)c2cccc3ccccc23)cc(OC)c1OC [Serial No. 40, 4-{3,4,5-trimethoxy-[N-(α-naphthyl)]benzamido}butyric acid]	–	–	–	–	–	–	–	selectivity ratio ([2]; Table XII, read-out: TQ LD50/ED50, bile secretion): 45; ED50 (bile secretion; narcotized rat i.d., 30 minute fraction, Table XII, read-out: ED50 bile secretion (dose which brings about an increase in bile secretion by a maximum of 50%)): 8 mg/kg; selectivity ratio ([3]; TQ LD50/ED25, antihepatotoxic effect, LD50 mouse i.p. / ED25 rat p.o., Table XI): 21.2; selectivity ratio ([3]; TQ LD50/ED50, antihepatotoxic effect, LD50 mouse i.p. / ED50 rat p.o., Table XI): ≤ 12; ED25 (liver damage by CCl4): 17 mg/kg; ED50 (liver damage by CCl4; [18]): ≥ 30 mg/kg; LD50 at 336 h ([4]; mouse i.p., Table XI): 360 mg/kg
